By GI50 is commonly meant the concentration giving 50% growth inhibition.

In brackets after ≈: the same amount, converted by molar mass.

What all share (type): cell-based
Assay [1] concerns HCT-116 human colon adenocarcinoma cancer cells. Description: anticancer activity against HCT-116 colon cancer cell line. The note with it: for growth inhibition against the cancer cell line HCT-116 human colon carcinoma: in words. Here is the method: For extraction of compounds from the CNQ140 actinomycete, the following protocol was used. Pre-washed XAD-7 resin (20 g) was added to 1 liter of culture and mixed for 1 hour. The contents were collected by filtration, washed with deionized water (1 liter) and eluted with acetone (250 ml). The extraction liquid from each successive extraction step (as shown in FIG. 1) was tested for anticancer activity (IC50) against HCT-116 colon cancer cell line. […] A second extraction step using C-18 reverse phase HPLC and a solvent of 65% MeCN in water yielded four distinct compounds with activity against the colon cancer cell line. […] The chemical structures of these compounds appear below:
(§1) As shown by the data in Table 1 below the invention therapeutic compounds have both anticancer and antibiotic activity, as illustrated in tests against HCT-116 human colon adenocarcinoma cancer cells (HCT-116); methicillin resistant Staphylococcus aureus (MRSA); and vancomycin-resistant Enterococcus faecium (VREF):
Pre-washed XAD-7 resin (20 g) was added to 1 liter of culture and mixed for 1 hour. The contents were collected by filtration, washed with deionized water (1 liter) and eluted with acetone (250 ml). The extraction liquid from each successive extraction step (as shown in FIG. 1) was tested for anti-cancer activity (IC50) against HCT-116 colon cancer cell line. […] A second chromatographic purification step for fraction CNQ140-3, using C-18 reverse phase HPLC and 65% MeCN in water, yielded four distinct CNQ140 macrolide polyol-polyene compounds with activity against the colon cancer cell line: […]

Assay [2] concerns vancomycin-resistant Enterococcus faecium (VREF). Description: antibiotic activity (MIC) against VREF.
From the text: as §1
(§2) As shown by the data in Table 1 below the invention therapeutic compounds have both anticancer and antibiotic activity, as illustrated in tests against HCT-116 colon cancer cells (HCT-116); methicillin resistant Staphylococcus aureus (MRSA); and vancomycin-resistant Enterococcus faecium (VREF).

Assay [3] concerns methicillin resistant Staphylococcus aureus (MRSA). Description: antibiotic activity (MIC) against MRSA.
From the text: as §1, §2

In another assay the test system is all 60 cell lines. In words: National Cancer Institute's 60 cancer cell line in vitro cytotoxicity assay. The text has this:
Compounds CNQ140.996a, CNQ140.996b, and CNQ140.996c were examined in the National Cancer Institute's 60 cancer cell line, in vitro, cytotoxicity assay. The following cytoxicity data were derived for the invention compounds: […]

Take `CCC(O)CC1CC(O)C/C=C/[C@@H](O)C[C@@H](O)C/C(C)=C/C=C/C=C/C=C\c2cccc(O)c2C(=O)OC(CC(C)O)CC(O)C/C=C/[C@@H](O)C[C@@H](O)C/C(C)=C/C=C/C=C/C=C\c2cccc(O)c2C(=O)O1` (stereo partly shown) [CNQ140.1010]: the “HCT-116 (IC50 microgm/ml)” value in assay [1] (HCT-116 cells) was 3.1 microgm/ml. Besides, the “growth inhibition against the cancer cell line HCT-116 human colon carcinoma” value in assay [1] was “showed growth inhibition”. The “VREF (MIC microgm/ml)” value in assay [2] amounted to 0.25 microgm/ml. For the same compound, the “MRSA (MIC microgm/ml)” value in assay [3] came out at 0.25 microgm/ml.
For the compound `CCC(O)CC1CC(O)C/C=C/[C@@H](O)C[C@@H](O)C/C(C)=C/C=C/C=C/C=C\c2cccc(O)c2C(=O)OC(CC(C)O)CC(O)C/C=C/[C@@H](O)C[C@@H](O)C/C(C)=C/C=C/C=C/C=C\c2cccc(O)c2C(=O)O1` (stereo partly shown) [CNQ140.996c], the IC50 in assay [1] (Homo sapiens, HCT-116, HCT-116 cells, read-out: HCT-116 (IC50 microgm/ml)) was found to be 2.6 µg/mL (≈ 2.57 µM). Further, the “growth inhibition against the cancer cell line HCT-116 human colon carcinoma” value in assay [1] was “showed growth inhibition”. In the assay with all 60 cell lines (average over NCI 60 cell lines, read-out: Average GI50 against all 60 cell lines), the concentration for 50% growth inhibition (GI50) was determined as 5.1 nM. The tissue type selectivity result with all 60 cell lines (most sensitive: 6 of the 8 melanoma cancer types (LOX IMVI, M14, SK-MEL-2, SK-MEL-5, UACC-257, UACC-62)) is “significant tissue type selectivity”. Moreover, in assay [2], the “VREF (MIC microgm/ml)” value stood at 0.25 microgm/ml. The “MRSA (MIC microgm/ml)” value in assay [3] was 0.25 microgm/ml.

(Values after patent US7521414B2, “Polyol macrolide antitumor-antibiotics from the marine actinomycete strain CNQ140” (priority 2003, dated 2009).)
